Measurements from US20230414599A1, “NICOTINAMIDE, NICOTINAMIDE PRECURSORS AND NICOTINAMIDE METABOLITES AND COMPOSITIONS THEREOF FOR REDUCING THE TIME TO RESOLUTION OF SYMPTOMS IN PATIENTS WITH COVID-19 AND OTHER VIRAL INFECTIONS” (CONARIS RESEARCH INSTITUTE AG, priority 2020, published 2023).
Read-outs that look alike come from different tables or passages of the source.

Tested on: COVID-19
Conditions: for Cough complaint scale, mean / Cough complaint scale, median / Change in cough complaint scale, mean / Change in cough complaint scale, median: n = 36; for Ability to perform normal activities, complaint scale 0-6, mean change / Ability to perform normal activities, complaint scale 0-6, median change: week 4 - baseline
[1] = baseline, BMI ≥30.0 or type 2 diabetes, n = 27
[2] = baseline, current or former smokers, n = 75
[3] = baseline, patients with cough and fever, n = 15
[4] = baseline, patients with cough, n = 106
[5] = baseline, patients with fever, n = 21
[6] = baseline, ≥1 risk factor for severe COVID-19, n = 117
[7] = patients with cough and taste loss, baseline
[8] = patients with cough and taste loss, week 2
[9] = patients with cough and taste loss, week 2 - baseline
[10] = patients with cough and taste loss, week 4
[11] = patients with cough and taste loss, week 6
[12] = patients with cough and taste loss, week 6 - baseline
[13] = patients with cough, fever and taste loss, n = 6, week 4 compared to baseline
[14] = patients with cough, fever and taste loss, n = 6, week 6 compared to baseline
[15] = patients with fever and taste loss, n = 8, week 4 compared to baseline
[16] = patients with fever and taste loss, n = 8, week 6 compared to baseline
[17] = week 2 - baseline, BMI ≥30.0 or type 2 diabetes, n = 27, 500 mg IR + 500 mg CICR-NAM daily
[18] = week 2, BMI ≥30.0 or type 2 diabetes, n = 27, 500 mg IR + 500 mg CICR-NAM daily
[19] = week 2, current or former smokers, n = 75, 500 mg IR + 500 mg CICR-NAM daily
[20] = week 2, patients with cough and fever, n = 15, 500 mg IR + 500 mg CICR-NAM daily
[21] = week 2, patients with cough, n = 106, 500 mg IR + 500 mg CICR-NAM daily
[22] = week 2, patients with fever, n = 21, 500 mg IR + 500 mg CICR-NAM daily
[23] = week 2, ≥1 risk factor for severe COVID-19, n = 117, 500 mg IR + 500 mg CICR-NAM daily
[24] = BMI ≥30.0 or type 2 diabetes, n = 27, 500 mg IR + 500 mg CICR-NAM daily
[25] = patients with cough and fever, n = 15, 500 mg IR + 500 mg CICR-NAM daily
[26] = patients with cough, n = 106, 500 mg IR + 500 mg CICR-NAM daily
[27] = patients with fever, n = 21, 500 mg IR + 500 mg CICR-NAM daily
[28] = week 4, BMI ≥30.0 or type 2 diabetes, n = 27, 500 mg IR + 500 mg CICR-NAM daily
[29] = week 4, current or former smokers, n = 75, 500 mg IR + 500 mg CICR-NAM daily

Question: Which results are given for `NC(=O)c1cccnc1` [Nicotinamide, nicotinamide]?
Answer: Ability to perform normal activities, complaint scale 0-6, mean [1]: 3.037; Ability to perform normal activities, complaint scale 0-6, median [1]: 3.000; Cough complaint scale 0-6, mean [1]: 3.000; Cough complaint scale 0-6, median [1]: 3.000; Ability to perform normal activities, complaint scale 0-6, mean [2]: 3.373; Ability to perform normal activities, complaint scale 0-6, median [2]: 4.000; Ability to perform normal activities, complaint scale 0-6, mean [3]: 4.000; Ability to perform normal activities, complaint scale 0-6, median [3]: 4.0; Ability to perform normal activities, complaint scale 0-6, mean [4]: 2.915; Ability to perform normal activities, complaint scale 0-6, median [4]: 3.0; Ability to perform normal activities, complaint scale 0-6, mean [5]: 4.000; Ability to perform normal activities, complaint scale 0-6, median [5]: 4.0; Ability to perform normal activities, complaint scale 0-6, mean [6]: 3.188; Ability to perform normal activities, complaint scale 0-6, median [6]: 3.0; Cough complaint scale vs placebo (Table 7.1) (patients with cough and taste loss): significant difference found in favour of placebo; Cough complaint scale, mean [7]: 2.194; Cough complaint scale, median [7]: 2.0; Cough complaint scale, mean [8]: 0.917; Cough complaint scale, median [8]: 0.0; Change in cough complaint scale, mean [9]: −1.287; Change in cough complaint scale, median [9]: −1.0; Cough complaint scale, mean [10]: 0.639; Cough complaint scale, median [10]: 0.0; Cough complaint scale, mean [11]: 0.417; Cough complaint scale, median [11]: 0.0; Change in cough complaint scale, mean [12]: −1.778; Change in cough complaint scale, median [12]: −2.0; Change in fatigue: constant, number of patients [13]: 1; Change in fatigue: improved, % [13]: 83.33%; Change in fatigue: improved, number of patients [13]: 5; Change in fatigue: worse, % [13]: 0.00%; Change in fatigue: worse, number of patients [13]: 0; Change in fatigue: constant, number of patients [14]: 2; Change in fatigue: improved, % [14]: 66.67%; Change in fatigue: improved, number of patients [14]: 4; Change in fatigue: worse, % [14]: 0.00%; Change in fatigue: worse, number of patients [14]: 0; Change in fatigue: constant, number of patients [15]: 1; Change in fatigue: improved, % [15]: 87.50%; Change in fatigue: improved, number of patients [15]: 7; Change in fatigue: worse, % [15]: 0.00%; Change in fatigue: worse, number of patients [15]: 0; Change in fatigue: constant, number of patients [16]: 2; Change in fatigue: improved, % [16]: 75.00%; Change in fatigue: improved, number of patients [16]: 6; Change in fatigue: worse, % [16]: 0.00%; Change in fatigue: worse, number of patients [16]: 0; Effect on the ability to perform normal activities, fatigue and reduced physical performance (patients with ≥1 risk factor for severe COVID-19, futility analysis): biologically and statistically significant positive effect; Cough complaint scale 0-6, mean change [17]: −1.815; Cough complaint scale 0-6, median change [17]: −2.000; Ability to perform normal activities, complaint scale 0-6, mean [18]: 1.556; Ability to perform normal activities, complaint scale 0-6, median [18]: 1.000; Cough complaint scale 0-6, mean [18]: 1.185; Cough complaint scale 0-6, median [18]: 1.000; Ability to perform normal activities, complaint scale 0-6, mean [19]: 1.093; Ability to perform normal activities, complaint scale 0-6, median [19]: 0.000; Presence of cough constant vs baseline, % of patients [19]: 60.00%; Presence of cough constant vs baseline, patients [19]: 45; Presence of cough improved vs baseline, % of patients [19]: 36.00%; Presence of cough improved vs baseline, patients [19]: 27; Presence of cough worse vs baseline, % of patients [19]: 4.00%; Presence of cough worse vs baseline, patients [19]: 3; Ability to perform normal activities, complaint scale 0-6, mean [20]: 1.733; Ability to perform normal activities, complaint scale 0-6, median [20]: 2.0; Ability to perform normal activities, complaint scale 0-6, mean [21]: 1.226; Ability to perform normal activities, complaint scale 0-6, median [21]: 1.0; Ability to perform normal activities, complaint scale 0-6, mean [22]: 1.381; Ability to perform normal activities, complaint scale 0-6, median [22]: 1.0; Ability to perform normal activities, complaint scale 0-6, mean [23]: 1.299; Ability to perform normal activities, complaint scale 0-6, median [23]: 1.0; Fatigue constant vs baseline, % of patients [23]: 57.26%; Fatigue constant vs baseline, patients [23]: 67; Fatigue improved vs baseline, % of patients [23]: 40.17%; Fatigue improved vs baseline, patients [23]: 47; Fatigue worse vs baseline, % of patients [23]: 2.56%; Fatigue worse vs baseline, patients [23]: 3; Ability to perform normal activities, complaint scale 0-6, mean change [24]: −1.667; Ability to perform normal activities, complaint scale 0-6, median change [24]: −2.000; Ability to perform normal activities, complaint scale 0-6, mean change [25]: −2.800; Ability to perform normal activities, complaint scale 0-6, median change [25]: −3.0; Ability to perform normal activities, complaint scale 0-6, mean change [26]: −2.179; Ability to perform normal activities, complaint scale 0-6, median change [26]: −2.0; Ability to perform normal activities, complaint scale 0-6, mean change [27]: −2.952; Ability to perform normal activities, complaint scale 0-6, median change [27]: −3.0; Ability to perform normal activities constant vs baseline, % of patients [28]: 14.81%; Ability to perform normal activities constant vs baseline, patients [28]: 4; Ability to perform normal activities improved vs baseline, % of patients [28]: 74.07%; Ability to perform normal activities improved vs baseline, patients [28]: 20; Ability to perform normal activities worse vs baseline, % of patients [28]: 11.11%; Ability to perform normal activities worse vs baseline, patients [28]: 3; Ability to perform normal activities, complaint scale 0-6, mean [28]: 1.370; Ability to perform normal activities, complaint scale 0-6, median [28]: 1.000; Cough complaint scale 0-6, mean [28]: 0.815; Cough complaint scale 0-6, median [28]: 0.000; Ability to perform normal activities constant vs baseline, % of patients [29]: 9.33%; Ability to perform normal activities constant vs baseline, patients [29]: 7; Ability to perform normal activities improved vs baseline, % of patients [29]: 84.00%; Ability to perform normal activities improved vs baseline, patients [29]: 63
